Results taken from patent US5574142A, “Peptide linkers for improved oligonucleotide delivery” (MicroProbe Corporation, priority 1992, dated 1996).
{C6NH2} = aminohexyl phosphate linker

What was measured:
[1] = test system: unmodified 20-mer ODN complement with the base sequence 5'-GTGACGAACATGGAGAACAT; assay: Thermal denaturation studies (Tm of duplex with complementary ODN); assay type: binding; settings: equimolar ODN and 20-mer complement, 2 μM solutions in pH 7.2 PBS, A260, 15-85° C. at 0.5° C./min
Description: The ODN-peptide conjugates prepared from ODN1 were further characterized by thermal denaturation studies as described in EXAMPLE III. The dissociation of duplexes formed from equimolar concentrations of the ODN1-peptide conjugates and an unmodified 20-mer ODN target were examined. The changes in absorbance at 260 nm were measured as a function of temperature and the melting temperatures (Tm) were determined. […] Therefore, amino acid residue(s) from proteolysis of the linker are, generally speaking, expected to have little effect on the biological activity of the released ODN.
Thermal Denaturation Studies (ODN1-Peptides). Thermal dissociation curves were obtained by following changes in A260 of aqueous solutions containing equimolar amounts of the particular ODN1-peptide described above and an unmodified 20-mer ODN complement with the base sequence 5'-[…] Sequence ID No.: 14. The 5'-hexylamine modified 16-mer (ODN1) was used as a control in each run. ODNs were prepared as 2 μM solutions in pH 7.2 PBS. A Gilford System 2600 UV-VIS spectrophotometer equipped with a Gilford 2527 Thermoprogrammer was used. […] Absorbance vs. time and the first derivative data were recorded automatically. […] The Tm was determined using the derivative maxima: ODN1, Tm =62.8° C.; ODN1-PEP1, Tm =61.8° C.; ODN1-PEP2, Tm =59.0° C.; […]° C.

trypsin = assay: Protease degradation studies (trypsin digestion, polyacrylamide gel electrophoresis); assay type: biochemical; settings: 2 μg ODN-peptide, Tris pH 9.0, EDTA, digesting 60 min, 20% denaturing polyacrylamide gel
From the text: The model ODN-peptide conjugates were further characterized by their susceptibility to proteolysis with trypsin. (For detail see EXAMPLE IV). As is known in the art, trypsin catalyzes the hydrolysis at the carboxyl side of lysine or arginine residues in the peptides. It was found in accordance with the present invention that trypsin had no effect on the ODN as shown by polyacrylamide gel electrophoresis in FIG. 6.
Protease Degradation Studies (ODN1-Peptides). The three ODN1-peptide conjugates (described in Table I) were characterized by treatment with trypsin. Solutions of 2 μg of the ODN-peptide in 7 μL of water were combined with 1 μL of 10x trypsin disruption solution, 1 μL of 100 mM Tris buffer (pH 9.0), and 1 μL of 100 mM EDTA. After digesting 60 min, the samples were loaded on 20% denaturing polyacrylamide gel. Electrophoresis indicated complete proteolysis of starting ODN1-peptide (see FIG. 6, lanes 1-6). Trypsin had no effect on an unmodified ODN1 control (lanes 8 and 9).

Substance: H2 N--(CH2)6 --O--PO2^- -5'O--CTCCATCTTCGTCACA (5' {C6NH2}, sugars by position and backbone not given here) [ODN1, 5'-hexylamine modified 16-mer ODN complementary to initiation codon region of Hepatitis B surface antigen mRNA]
- Tm (melting temperature, derivative maxima) [1]: 62.8 °C
- proteolysis by trypsin (electrophoresis) (trypsin): no effect
